# Measured values published in patent US7595345B2, “Vitamin D receptor modulators” (Eli Lilly and Company, priority 2003, dated 2009).
# Tests used:
# [1] = target: T1, RXR-VDR heterodimer (Gal4-RXR-DEF and VP16-VDR-LBD) (Homo sapiens, UniProt P11473); assay: RXR-VDR heterodimerization assay (SaOS-2 cells); format: cell-based; conditions: luciferase reporter pFR-LUC
# T1 construct: Add the Gal4-RXR-DEF and VP16-VDR-LBD; expressed in transfected cells; host or cells: SaOs-2 cells
# T1 sequence (P11473 127-423 limits assumed): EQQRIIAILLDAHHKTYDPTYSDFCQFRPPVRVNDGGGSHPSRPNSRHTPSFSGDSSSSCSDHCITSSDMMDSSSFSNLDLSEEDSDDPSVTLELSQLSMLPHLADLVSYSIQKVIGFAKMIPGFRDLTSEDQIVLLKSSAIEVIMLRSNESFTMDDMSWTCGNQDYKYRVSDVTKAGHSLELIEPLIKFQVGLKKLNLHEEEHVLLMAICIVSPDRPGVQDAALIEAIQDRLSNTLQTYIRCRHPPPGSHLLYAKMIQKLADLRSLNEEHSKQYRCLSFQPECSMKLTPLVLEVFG
# T1 sequence (P19793 201-462 partner limits assumed): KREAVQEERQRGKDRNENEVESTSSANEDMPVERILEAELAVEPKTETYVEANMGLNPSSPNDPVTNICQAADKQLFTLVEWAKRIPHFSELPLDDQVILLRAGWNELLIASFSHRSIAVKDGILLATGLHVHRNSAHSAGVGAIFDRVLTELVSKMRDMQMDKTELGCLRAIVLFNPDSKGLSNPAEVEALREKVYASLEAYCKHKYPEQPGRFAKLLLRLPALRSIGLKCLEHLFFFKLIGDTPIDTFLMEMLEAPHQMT
# From the text: 1. The RXR-VDR Heterodimer Assay:
# This assay provides the VDR activity of a test compound.
# This is an in vitro efficacy assay for psoriasis, abscess and adhesion. Psoriasis involves both keratinocytes and immune cells. IL-10 is a unique cytokine because it is anti-inflammatory and immunosuppressive. This assay tells us whether a VDRM is able to function as an agonist in PBMCs (primary blood mononuclear cells) or not. […] 7. Other Compound Assay Standards An alternative measure of the efficacy of compounds of the invention for treatment of osteoporosis is a numerical ratio calculated as follows: • Dose Threshold needed to induce hypercalcemia • divided by • Dose Threshold needed for bone efficacy An alternative measure of the efficacy of compounds of the invention for treatment of psoriasis is a numerical ratio calculated as follows: • Dose Threshold needed to induce hypercalcemia • divided by • Dose Threshold needed to induce keratinocyte proliferation For the above ratios, Dose Thresholds are determined from dose response curve data. 8. The CaT1 (Calcium Transport Protein 1) Assay The CaT1 Assay is an indicator for the undesirable condition of hypercalcemia. […] Preferred assay results are greater than 1000 nM. Details of the Assay Methods: (1) Materials and Method for RXR-VDR Heterodimerization Assay: Transfection Method:
# Grow SaOs-2 cells in T-152 cm^2 culture flasks in growth media.
# Keep the density at 5-6×10^5 cells/ml
# Passage cells 1:3 twice a week
# Resuspend cells in plating media and transfer into growth media.
# Transfection/Treatment Media:
# D-MEM Low Glucose Without Phenol Red only
# T-152 cm^2 culture flask:
# Use well plate to plate cells
# Use Deep well plate sterile to make up treatment media.
# Luciferase Assay Reagent:
# Use Steady-Glo Luciferase Reagent from Promega (Cat #E2550) Consists of:
# a. E2533 Assay Substrate, lyophilized product and
# Aspirate media from culture flask, rinse cells with HBSS and aspirate.
# Add trypsin and incubate. […]
# Read the plates after drug treatment […]
# Count each well using a Luminescence counter, Top Count NXT by Packard […]
# [2] = Mouse hypercalcemia assay; format: in vivo; conditions: female DBF mice, oral gavage for 6 days, serum ionized calcium 6 hours after last dosing
# From the text: 4. The Mouse Hypercalcemia Assay
# (4) Materials and Method for the Mouse Hypercalcemia Assay: […]
# VDR (pGal4-VDR-LBD) = target: T2, VDR (pGal4-VDR-LBD) (Homo sapiens, UniProt P11473); assay: VDR CTF (Caco-2 cell co-transfection assay); format: cell-based; conditions: Caco-2 cells, Gal4-responsive reporter pFRLuc; surrogate for calcemic activity
# T2 construct: the receptor expression vector pGal4-VDR-LBD (10 ng); expressed in transfected cells; host or cells: Caco-2 cells
# T2 sequence (P11473 127-423 limits assumed): T1 sequence (P11473 127-423 limits assumed)
# Description: 2. The Caco-2 Cell Co-Transfection Assay:
# The Caco-2 cell assay is an indicator for the undesirable condition of hypercalcemia. This co-transfection assay is a surrogate assay for in vivo calcemic activity of VDR ligands. […] Preferred assay results are greater than 1000 nM.
# (2) Materials and Method for the Caco-2 Cell Assay:
# Caco-2 cells, grown in phenol red free, DMEM (Invitrogen, Carlsbad, Calif.) containing 10% charcoal-stripped FCS (Hyclone, Logan, Utah), were transfected with Fugene 6 reagent (Roche Diagnostics, Indianapolis, Ind.). Cells (5000/well) were plated 18 h before transfection in a 96 well plate. The Cells were transfected with Gal4-responsive reporter pFRLuc (150 ng, Stratagene, La Jolla Calif.) and the receptor expression vector pGal4-VDR-LBD (10 ng), along with Fugene 6 reagent (0.2 μl/well). The DNA-Fugene complex was formed by incubating the mixture for 30 min at room temperature. The cells were transfected in triplicate for 5 h, and treated with various concentrations of VDR ligands (form 0.01 nM to 10,000 nM concentration range) 18 h post-transfection. The luciferase activity was quantified using Steady-Glo reagent kit (Promega, Madison, Wis.) as per manufacturer's specifications.
# rat osteocalcin promoter = assay: OCN (osteocalcin) promoter assay; format: cell-based; conditions: Rattus norvegicus, 48 h, RG-15 (ROS 17/2.8) cells, 48 hr treatment, luciferase
# Description: 3. The OCN (Osteocalcin) Promoter Assay
# The OCN Promoter Assay is an indicator and marker for osteoporosis. Desired assay results are EC50 less than or equal to […]. Preferred assay results are less than […].
# (3) Materials and Method for the OCN Promoter Assay:
# The activation of osteocalcin by VDR ligands was evaluated in a rat osteoblast-like cell line RG-15 (ROS 17/2.8) stably expressing rat osteocalcin promoter fused with luciferase reporter gene. The stable cell lines were established as reported before (Activation of Osteocalcin Transcription involves interaction of protein kinase A- and Protein kinase C-dependent pathways. Boguslawski, G., Hale, L. V., Yu, X.-P., Miles, R. R., Onyia, J. E., Santerre R. F., Chandrasekhar, S. J. Biol. Chem. 275, 999-1006, 2000). Confluent RG-15 cells maintained in DMEM/F-12 medium (3:1) containing 5% FBS, 300 µg/ml G418 and at 37° C. under 5% CO2/95% air atmosphere were trypsinized (0.25% trypsin) and plated into white opaque 96-well cell culture plates (25000 cells/well). After 24 hr, cells (in DMEM/F-12 medium+2% FBS) were treated with various concentrations of compounds, dissolved in DMSO. The final DMSO concentration remained at 0.01% (v/v). After 48 hr treatment, the medium was removed, cells were lysed with 50 µl of lysis buffer (From Luciferase reporter assay system, Roche Diagnostics, Indianapolis, Ind.) and assayed for luciferase activity using the Luciferase Reporter Gene Assay kit from Boehringer Mannheim as per manufacturer's specifications.
compound,measurement,setting,value
"CCC(CC)(c1ccc(C#CC2(O)CCCC2)c(C)c1)c1ccc(C(=O)NC(C)(C)C(=O)O)c(C)c1 [Ex. 1, 2-(4-{1-Ethyl-1-[4-(1-hydroxy-cyclopentylethynyl)-3-methyl-phenyl]-propyl}-2-methyl-benzoylamino)-2-methyl-propionic acid]",EC50,[1],68.6 nM
same,Mouse Hypercal,[2],3000 µg/kg/day
same,EC50,VDR (pGal4-VDR-LBD),471 nM
same,EC50,rat osteocalcin promoter,0.96 nM
